Experimental data as given in ChEMBL document CHEMBL1201861, “Genomics of Drug Sensitity in Cancer screening data, Wellcome Trust Sanger Institute”.

How the values were obtained:
Assay in all cases: cells
D283 Med = type: functional, cell-based, Homo sapiens; conditions: Homo sapiens, D283 Med
Description: SANGER: Inhibition of human D-283MED cell growth in a cell viability assay.

MPP-89 = type: functional, cell-based, Homo sapiens; conditions: Homo sapiens, MPP-89;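 further: growth inhibition of human MPP-89 cells, read out with a cell viability assay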
Description: SANGER: Inhibition of human MPP-89 cell growth in a cell viability assay.

KNS-81-FD = type: functional, cell-based, Homo sapiens; conditions: Homo sapiens, KNS-81-FD;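 further: growth inhibition of KNS-81-FD cells, read out with a cell viability assay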
Description: SANGER: Inhibition of human KNS-81-FD cell growth in a cell viability assay.

MFM-223 = type: functional, cell-based, Homo sapiens; conditions: Homo sapiens, MFM-223
Description: SANGER: Inhibition of human MFM-223 cell growth in a cell viability assay.

BB49-HNC = type: functional, cell-based, Homo sapiens; conditions: Homo sapiens, BB49-HNC;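 further: cell viability assay read-out, reported as inhibition of BB49-HNC cell growth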
Description: SANGER: Inhibition of human BB49-HNC cell growth in a cell viability assay.

A4-Fuk = type: functional, cell-based, Homo sapiens; conditions: Homo sapiens, A4-Fuk;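 further: growth inhibition of A4-Fuk cells, read out by a cell viability assay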
Description: SANGER: Inhibition of human A4-Fuk cell growth in a cell viability assay.

VA-ES-BJ = type: functional, cell-based, Homo sapiens; conditions: Homo sapiens, VA-ES-BJ;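 further: growth inhibition of the VA-ES-BJ cell line, read out by a cell viability assay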
Description: SANGER: Inhibition of human VA-ES-BJ cell growth in a cell viability assay.

TE-5 = type: functional, cell-based, Homo sapiens; conditions: Homo sapiens, TE-5;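 further: inhibition of cell growth, read out by a cell viability assay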
Description: SANGER: Inhibition of human TE-5 cell growth in a cell viability assay.

RXF 393 = type: functional, cell-based, Homo sapiens; conditions: Homo sapiens, RXF 393;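 further: growth inhibition of human RXF 393 cells, read out with a cell viability assay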
Description: SANGER: Inhibition of human RXF393 cell growth in a cell viability assay.

EKVX = type: functional, cell-based, Homo sapiens; conditions: Homo sapiens, EKVX;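 further: growth inhibition of human EKVX cells, read out with a cell viability assay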
Description: SANGER: Inhibition of human EKVX cell growth in a cell viability assay.

A101D = type: functional, cell-based, Homo sapiens; conditions: Homo sapiens, A101D;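 further: growth inhibition of the cell line, measured with a viability assay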
Description: SANGER: Inhibition of human A101D cell growth in a cell viability assay.

EW-11 = type: functional, cell-based, Homo sapiens; conditions: Homo sapiens, EW-11;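 further: growth inhibition of human EW-11 cells, measured with a cell viability assay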
Description: SANGER: Inhibition of human EW-11 cell growth in a cell viability assay.

SK-N-DZ = type: functional, cell-based, Homo sapiens; conditions: Homo sapiens, SK-N-DZ; read-out: IC50;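 further: growth inhibition of the cancer cell line, read out through a viability assay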
Description: SANGER: Inhibition of human SK-N-DZ cell growth in a cell viability assay.

MLMA = type: functional, cell-based, Homo sapiens; conditions: Homo sapiens, MLMA;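 further: growth inhibition of MLMA cells (human), determined through a cell viability readout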
Description: SANGER: Inhibition of human MLMA cell growth in a cell viability assay.

GR-ST = type: functional, cell-based, Homo sapiens; conditions: Homo sapiens, GR-ST
Description: SANGER: Inhibition of human GR-ST cell growth in a cell viability assay.

LB831-BLC = type: functional, cell-based, Homo sapiens; conditions: Homo sapiens, LB831-BLC;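 further: growth inhibition of LB831-BLC cells, read out with a cell viability assay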
Description: SANGER: Inhibition of human LB831-BLC cell growth in a cell viability assay.

AM-38 = type: functional, cell-based, Homo sapiens; conditions: Homo sapiens, AM-38;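 further: growth inhibition of AM-38 cells of human origin, read out by a cell viability assay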
Description: SANGER: Inhibition of human AM-38 cell growth in a cell viability assay.

ETK-1 = type: functional, cell-based, Homo sapiens; conditions: Homo sapiens, ETK-1;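 further: growth inhibition of human ETK-1 cells, read out with a cell viability assay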
Description: SANGER: Inhibition of human ETK-1 cell growth in a cell viability assay.

NCI-H1304 = type: functional, cell-based, Homo sapiens; conditions: Homo sapiens, NCI-H1304;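 further: growth inhibition of the cancer cell line, measured in a cell viability assay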
Description: SANGER: Inhibition of human NCI-H1304 cell growth in a cell viability assay.

MS-1 = type: functional, cell-based, Homo sapiens; conditions: Homo sapiens, MS-1;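 further: growth inhibition of MS-1 cells, read out by cell viability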
Description: SANGER: Inhibition of human MS-1 cell growth in a cell viability assay.

NCI-H446 = type: functional, cell-based, Homo sapiens; conditions: Homo sapiens, NCI-H446;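 further: growth inhibition of NCI-H446 cells determined by a cell viability assay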
Description: SANGER: Inhibition of human NCI-H446 cell growth in a cell viability assay.

TGBC1TKB = type: functional, cell-based, Homo sapiens; conditions: Homo sapiens, TGBC1TKB;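 further: growth inhibition of TGBC1TKB cells, read out by a cell viability assay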
Description: SANGER: Inhibition of human TGBC1TKB cell growth in a cell viability assay.

SF-268 = type: functional, cell-based, Homo sapiens; conditions: Homo sapiens, SF-268;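 further: growth inhibition of SF-268 cells determined with a cell viability assay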
Description: SANGER: Inhibition of human SF268 cell growth in a cell viability assay.

P30-OHK = type: functional, cell-based, Homo sapiens; conditions: Homo sapiens, P30-OHK;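 further: growth inhibition of the P30-OHK cell line, read out with a cell viability assay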
Description: SANGER: Inhibition of human P30-OHK cell growth in a cell viability assay.

D-247MG = type: functional, cell-based; conditions: Homo sapiens
Description: SANGER: Inhibition of human D-247MG cell growth in a cell viability assay.

NCI-H1770 = type: functional, cell-based, Homo sapiens; conditions: Homo sapiens, NCI-H1770;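 further: growth inhibition of NCI-H1770 cells determined with a viability readout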
Description: SANGER: Inhibition of human NCI-H1770 cell growth in a cell viability assay.

LS-1034 = type: functional, cell-based, Homo sapiens; conditions: Homo sapiens, LS-1034
Description: SANGER: Inhibition of human LS-1034 cell growth in a cell viability assay.

EW-18 = type: functional, cell-based, Homo sapiens; conditions: Homo sapiens, EW-18; read-out: IC50;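 further: growth inhibition of EW-18 cells, read out by a cell viability assay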
Description: SANGER: Inhibition of human EW-18 cell growth in a cell viability assay.

MHH-PREB-1 = type: functional, cell-based, Homo sapiens; conditions: Homo sapiens, MHH-PREB-1;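 further: cell viability assay measuring inhibition of proliferation of human MHH-PREB-1 cells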
Description: SANGER: Inhibition of human MHH-PREB-1 cell growth in a cell viability assay.

Calu-6 = type: functional, cell-based, Homo sapiens; conditions: Homo sapiens, Calu-6;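 further: growth of human Calu-6 cells, read out by a cell viability assay, IC50 marking inhibition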
Description: SANGER: Inhibition of human Calu-6 cell growth in a cell viability assay.

LB1047-RCC = type: functional, cell-based, Homo sapiens; conditions: Homo sapiens, LB1047-RCC;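 further: inhibition of cell growth, determined with a cell viability assay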
Description: SANGER: Inhibition of human LB1047-RCC cell growth in a cell viability assay.

SNB-75 = type: functional, cell-based, Homo sapiens; conditions: Homo sapiens, SNB-75;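 further: cell viability assay measuring growth inhibition of human SNB-75 cells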
Description: SANGER: Inhibition of human SNB75 cell growth in a cell viability assay.

D-502MG = type: functional, cell-based, Homo sapiens; conditions: Homo sapiens, D-502MG
Description: SANGER: Inhibition of human D-502MG cell growth in a cell viability assay.

COLO-668 = type: functional, cell-based, Homo sapiens; conditions: Homo sapiens, COLO-668
Description: SANGER: Inhibition of human COLO-668 cell growth in a cell viability assay.

KY821 = type: functional, cell-based, Homo sapiens; conditions: Homo sapiens, KY821;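 further: growth inhibition of human KY821 cells, read out by a cell viability assay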
Description: SANGER: Inhibition of human KY821 cell growth in a cell viability assay.

KM12 = type: functional, cell-based, Homo sapiens; conditions: Homo sapiens, KM12;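 further: KM12 cell growth inhibition, read out with a cell viability assay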
Description: SANGER: Inhibition of human KM12 cell growth in a cell viability assay.

TE-6 = type: functional, cell-based, Homo sapiens; conditions: Homo sapiens, TE-6;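 further: growth inhibition of TE-6 cells, read out with a cell viability assay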
Description: SANGER: Inhibition of human TE-6 cell growth in a cell viability assay.

LS-411N = type: functional, cell-based, Homo sapiens; conditions: Homo sapiens, LS-411N
ACN = type: functional, cell-based, Homo sapiens; conditions: Homo sapiens, ACN;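 further: growth inhibition of the human ACN cell line, read out via cell viability testing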
Description: SANGER: Inhibition of human ACN cell growth in a cell viability assay.

Becker = type: functional, cell-based, Homo sapiens; conditions: Homo sapiens, Becker;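 further: growth inhibition of Becker cells, read out with a cell viability assay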
Description: SANGER: Inhibition of human Becker cell growth in a cell viability assay.

CTV-1 = type: functional, cell-based, Homo sapiens; conditions: Homo sapiens, CTV-1;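 further: growth inhibition of the cell line, read out with a cell viability assay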
Description: SANGER: Inhibition of human CTV-1 cell growth in a cell viability assay.

NCI-H526 = type: functional, cell-based, Homo sapiens; conditions: Homo sapiens, NCI-H526;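 further: growth inhibition of the human NCI-H526 cell line, measured by a cell viability assay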
Description: SANGER: Inhibition of human NCI-H526 cell growth in a cell viability assay.

COLO-824 = type: functional, cell-based, Homo sapiens; conditions: Homo sapiens, COLO-824
Description: SANGER: Inhibition of human COLO-824 cell growth in a cell viability assay.

HCE-T = type: functional, cell-based, Homo sapiens; conditions: Homo sapiens, HCE-T;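 further: cell viability assay read-out, reporting inhibition of HCE-T cell growth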
Description: SANGER: Inhibition of human HCE-T cell growth in a cell viability assay.

KARPAS-45 = type: functional, cell-based, Homo sapiens; conditions: Homo sapiens, KARPAS-45;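 further: inhibition of cell line growth, read out through a viability assay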
Description: SANGER: Inhibition of human KARPAS-45 cell growth in a cell viability assay.

COR-L88 = type: functional, cell-based, Homo sapiens; conditions: Homo sapiens, COR-L88;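 further: growth inhibition of COR-L88 cells, read out with a cell viability assay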
Description: SANGER: Inhibition of human COR-L88 cell growth in a cell viability assay.

IA-LM = type: functional, cell-based; conditions: Homo sapiens;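 further: cell viability assay measuring growth inhibition of human IA-LM cells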
Description: SANGER: Inhibition of human IA-LM cell growth in a cell viability assay.

Q: Which IC50 (D283 Med) does the source give for `Nc1ccccc1NC(=O)c1ccc(CNC(=O)OCc2cccnc2)cc1` [ENTINOSTAT] here?
A: > 5 µM

Q: And the IC50 (MPP-89)?
A: 2.33 µM

Q: What about the IC50 (KNS-81-FD) of the same compound?
A: > 5 µM

Q: And the IC50 (MFM-223)?
A: > 5 µM

Q: And the IC50 (BB49-HNC)?
A: 2.92 µM

Q: And the IC50 (A4-Fuk)?
A: 1.15 µM

Q: And the IC50 (VA-ES-BJ)?
A: > 5 µM

Q: And the IC50 (TE-5)?
A: 3.21 µM

Q: What about the IC50 (RXF 393) of the same compound?
A: > 5 µM

Q: And the IC50 (EKVX)?
A: > 5 µM

Q: And the IC50 (A101D)?
A: 0.403 µM

Q: What about the IC50 (EW-11) of the same compound?
A: > 5 µM

Q: And the IC50 (SK-N-DZ)?
A: 1.25 µM

Q: What about the IC50 (MLMA) of the same compound?
A: 1.88 µM

Q: And the IC50 (GR-ST)?
A: 1.57 µM

Q: What about the IC50 (LB831-BLC) of the same compound?
A: 1.84 µM

Q: And the IC50 (AM-38)?
A: > 5 µM

Q: And the IC50 (ETK-1)?
A: 1.79 µM

Q: What about the IC50 (NCI-H1304) of the same compound?
A: 3.01 µM

Q: What about the IC50 (MS-1) of the same compound?
A: > 5 µM

Q: What about the IC50 (NCI-H446) of the same compound?
A: > 5 µM

Q: And the IC50 (TGBC1TKB)?
A: > 5 µM

Q: What about the IC50 (SF-268) of the same compound?
A: 3.48 µM

Q: What about the IC50 (P30-OHK) of the same compound?
A: > 5 µM

Q: What about the IC50 (D-247MG) of the same compound?
A: > 5 µM

Q: And the IC50 (NCI-H1770)?
A: > 5 µM

Q: And the IC50 (LS-1034)?
A: > 5 µM

Q: What about the IC50 (EW-18) of the same compound?
A: > 5 µM

Q: What about the IC50 (MHH-PREB-1) of the same compound?
A: 0.607 µM

Q: And the IC50 (Calu-6)?
A: > 5 µM

Q: What about the IC50 (LB1047-RCC) of the same compound?
A: 1.63 µM

Q: What about the IC50 (SNB-75) of the same compound?
A: > 5 µM

Q: What about the IC50 (D-502MG) of the same compound?
A: > 5 µM

Q: And the IC50 (COLO-668)?
A: > 5 µM

Q: What about the IC50 (KY821) of the same compound?
A: > 5 µM

Q: And the IC50 (KM12)?
A: 1.65 µM

Q: And the IC50 (TE-6)?
A: > 5 µM

Q: What about the IC50 (LS-411N) of the same compound?
A: 1.31 µM

Q: And the IC50 (ACN)?
A: 0.51 µM

Q: And the IC50 (Becker)?
A: 4.37 µM

Q: And the IC50 (CTV-1)?
A: 1.27 µM

Q: What about the IC50 (NCI-H526) of the same compound?
A: 0.635 µM

Q: And the IC50 (COLO-824)?
A: > 5 µM

Q: And the IC50 (HCE-T)?
A: 0.872 µM

Q: And the IC50 (KARPAS-45)?
A: 0.278 µM

Q: What about the IC50 (COR-L88) of the same compound?
A: 0.23 µM

Q: `COc1cc(N2CCC(N3CCN(C)CC3)CC2)ccc1Nc1ncc(Cl)c(Nc2ccccc2S(=O)(=O)C(C)C)n1` [TAE-684] was tested. Which IC50 (D283 Med) did it give?
A: 1.22 µM

Q: And the IC50 (MPP-89)?
A: 0.579 µM

Q: What about the IC50 (KNS-81-FD) of the same compound?
A: > 2 µM

Q: What about the IC50 (MFM-223) of the same compound?
A: > 2 µM

Q: What about the IC50 (BB49-HNC) of the same compound?
A: > 2 µM

Q: And the IC50 (A4-Fuk)?
A: 0.0557 µM

Q: And the IC50 (VA-ES-BJ)?
A: > 2 µM

Q: What about the IC50 (TE-5) of the same compound?
A: > 2 µM

Q: And the IC50 (IA-LM)?
A: > 2 µM

Q: And the IC50 (RXF 393)?
A: 0.558 µM

Q: What about the IC50 (EKVX) of the same compound?
A: > 2 µM

Q: And the IC50 (A101D)?
A: 1.57 µM

Q: And the IC50 (EW-11)?
A: > 2 µM

Q: And the IC50 (SK-N-DZ)?
A: 1.78 µM

Q: What about the IC50 (MLMA) of the same compound?
A: > 2 µM

Q: What about the IC50 (GR-ST) of the same compound?
A: 1.39 µM

Q: And the IC50 (LB831-BLC)?
A: 0.55 µM

Q: What about the IC50 (AM-38) of the same compound?
A: > 2 µM

Q: What about the IC50 (ETK-1) of the same compound?
A: 1.34 µM

Q: What about the IC50 (NCI-H1304) of the same compound?
A: 1.13 µM

Q: What about the IC50 (MS-1) of the same compound?
A: > 2 µM

Q: And the IC50 (NCI-H446)?
A: > 2 µM

Q: What about the IC50 (TGBC1TKB) of the same compound?
A: > 2 µM

Q: What about the IC50 (SF-268) of the same compound?
A: 0.84 µM

Q: And the IC50 (P30-OHK)?
A: > 2 µM

Q: And the IC50 (D-247MG)?
A: > 2 µM

Q: What about the IC50 (NCI-H1770) of the same compound?
A: > 2 µM

Q: And the IC50 (LS-1034)?
A: 0.636 µM

Q: What about the IC50 (EW-18) of the same compound?
A: > 2 µM

Q: What about the IC50 (MHH-PREB-1) of the same compound?
A: > 2 µM

Q: What about the IC50 (Calu-6) of the same compound?
A: > 2 µM

Q: What about the IC50 (LB1047-RCC) of the same compound?
A: 0.545 µM

Q: And the IC50 (SNB-75)?
A: > 2 µM

Q: What about the IC50 (D-502MG) of the same compound?
A: > 2 µM

Q: What about the IC50 (COLO-668) of the same compound?
A: > 2 µM

Q: What about the IC50 (KY821) of the same compound?
A: > 2 µM

Q: What about the IC50 (KM12) of the same compound?
A: > 2 µM

Q: And the IC50 (TE-6)?
A: > 2 µM

Q: And the IC50 (LS-411N)?
A: 0.675 µM

Q: What about the IC50 (ACN) of the same compound?
A: > 2 µM

Q: What about the IC50 (Becker) of the same compound?
A: > 2 µM

Q: And the IC50 (CTV-1)?
A: 0.556 µM

Q: What about the IC50 (NCI-H526) of the same compound?
A: > 2 µM

Q: What about the IC50 (COLO-824) of the same compound?
A: > 2 µM

Q: What about the IC50 (HCE-T) of the same compound?
A: 1.09 µM

Q: What about the IC50 (KARPAS-45) of the same compound?
A: 0.843 µM

Q: And the IC50 (COR-L88)?
A: > 2 µM
